Data: US20150126609A1, “PHARMACEUTICAL COMPOSITION COMPRISING 11-DEOXY -PROSTAGLANDIN COMPOUND AND METHOD FOR STABILIZING THE COMPOUND” (R-TECH UENO, LTD., priority 2007, published 2015)

Columns and labels:
[1] = Stability of Compound 1 in vehicle stored at 55° C., amount determined by HPLC; assay type: physicochemical; conditions: for day 10, percentage based on the theoretical amount (250 μg/g): stored at 55° C.
Protocol: Compound 1 was dissolved in a vehicle shown in table 1 below to give 250 μg/g solution. Then, the solution was put in a hard grass container and heated at 55° C. The precise amount of Compound 1 in the solution was determined by means of HPLC (day 0). The container was kept at 55° C. for 10 days and after that the precise amount of the compound 1 was determined by means of HPLC (day 10).
The determination of the amount of the compound was carried out as follows. About 0.2 g of the sample was mixed with exactly 2 mL of internal standard solution and then with a dissolving agent shown in Table 1 to give 5 ml of sample solution. About 5 mg of the reference standard compound 1 was weighted precisely and added with acetonitrile to give exactly 50 mL solution. Exactly 1 ml of the solution was obtained and added with exactly 4 mL of the internal standard solution, and then added with the dissolving agent to give 10 mL of reference solution.
The fluorescent labeling agent was added to the respective solution, stirred and stood at room temperature for more than 30 minutes. After that, 2% acetic acid in acetonitrile was added to the solution, stirred and reacted at room temperature for more 30 minutes to give the sample and standard solutions. Then, the respective solution in an amount that theoretically gives 3.6 ng of compound 1 was loaded on the column and analyzed under the condition as follows:
(§1) Column: 5 mm×25 cm stainless steel column packed with octadecylsilane treated silica gel for HPLC (5 μm)
Mobile phase: mixture of acetonitrile (HPLC grade) and perchlorate buffer
(§2) Detector: spectrophotofluorometer
According to the same manner as described in Example 1, stability of the compound 1 in various vehicles was measured.

[2] = Stability of Compound 1 in soft gelatin capsules (sugar alcohol plasticizer) on storage, amount determined by HPLC; assay type: physicochemical
Protocol: Sugar alcohol solution derived from corn starch 60 parts by weight was added in an appropriate amount of water, stirred and heated. Then, gelatin 100 parts by weight was added thereto to give gelatin solution. Compound 1 was dissolved in medium chain fatty acid triglyceride (USP/NF grade) to give a liquid mixture containing 120 μg/g of compound 1. The gelatin solution and the liquid mixture were loaded on a soft capsule forming and filling machine to give capsule containing the liquid mixture, and dried to give soft gelatin capsule with an appropriate hardness.
The soft gelatin capsules obtained in the formulation example were kept at 40° C. for 6 months or at 55° C. for one month. After that, 20 capsules were swelled with purified water and ethyl acetate (HPLC grade) 10 ml was added thereto. The capsule was then cut opened and the liquid contained therein was obtained. 1 ml of the internal standard solution per 100 μg of theoretical amount of compound 1 was added to the liquid, and ethyl acetate (HPLC grade) was added so that the theoretical concentration of compound 1 was 10 μg/mL to give a sample solution.
On the other hand, about 0.025 g of standard Compound 1 was precisely weighted and added with ethyl acetate (HPLC grade) to give exactly 100 mL solution. 2 mL of the solution was measured, exactly 5 mL of the internal standard solution was added thereto and ethyl acetate (HPLC grade) was added so that the total amount was 50 mL to give the standard compound 1 solution.
The fluorescent labeling agent was added to the sample and standard solutions, stirred and reacted at room temperature.
The respective solution in an amount that theoretically gives 3.6 ng of compound 1 was loaded on the column and analyzed under the condition as follows: HPLC analysis condition:
as §1
Mobile phase: mixture of acetonitrile HPLC grade: methanol HPLC grade: ammonium acetate (0.05 mol/L)
as §2
The amount of the compound 1 in the sample solution was determined by using a one point calibration curve.

stability on admixing with a fatty acid ester ([1]; admixed with a fatty acid ester such as glyceride, 55° C., 10 days): significantly improved | stability in polyol, sugar, sugar alcohol, polyethylene glycol, polysorbate 80 and fatty acid ([1]; in polyol such as glycerine, sugar, sugar alcohol, polyethylene glycol, polysorbate 80, and fatty acid, 55° C., 10 days): poor | day 0, percentage based on the theoretical amount (250 μg/g) ([1]; no vehicle (compound 1 only), 55° C.): 95.4% | day 10, percentage based on the theoretical amount (250 μg/g) ([1]; no vehicle (compound 1 only)): 82.8% | day 0, percentage based on the theoretical amount (250 μg/g) ([1]; vehicle Macrogol 400 (polyethyleneglycol), 55° C.): 92.2% | day 10, percentage based on the theoretical amount (250 μg/g) ([1]; vehicle Macrogol 400 (polyethyleneglycol)): 80.7% | day 0, percentage based on the theoretical amount (250 μg/g) ([1]; vehicle concentrated glycerin, 55° C.): 20.9% | day 10, percentage based on the theoretical amount (250 μg/g) ([1]; vehicle concentrated glycerin): 20.0% | day 0, percentage based on the theoretical amount (250 μg/g) ([1]; vehicle corn oil, 250 μg/g solution, 55° C.): 93.1% | day 10, percentage based on the theoretical amount (250 μg/g) ([1]; vehicle corn oil, 250 μg/g solution): 94.8% | day 0, percentage based on the theoretical amount (250 μg/g) ([1]; vehicle glycerine fatty acid ester (Inwitor 742), 250 μg/g solution, 55° C.): 93.3% | day 10, percentage based on the theoretical amount (250 μg/g) ([1]; vehicle glycerine fatty acid ester (Inwitor 742), 250 μg/g solution): 96.4% | day 0, percentage based on the theoretical amount (250 μg/g) ([1]; vehicle hydrogenated maltose starch syrup, 55° C.): 5.1% | day 10, percentage based on the theoretical amount (250 μg/g) ([1]; vehicle hydrogenated maltose starch syrup): 3.5% | day 0, percentage based on the theoretical amount (250 μg/g) ([1]; vehicle isopropyl palmitate, 250 μg/g solution, 55° C.): 93.9% | day 10, percentage based on the theoretical amount (250 μg/g) ([1]; vehicle isopropyl palmitate, 250 μg/g solution): 96.7% | day 0, percentage based on the theoretical amount (250 μg/g) ([1]; vehicle medium chain fatty acid triglyceride (Miglyol 812N), 250 μg/g solution, 55° C.): 94.1% | day 10, percentage based on the theoretical amount (250 μg/g) ([1]; vehicle medium chain fatty acid triglyceride (Miglyol 812N), 250 μg/g solution): 97.0% | day 0, percentage based on the theoretical amount (250 μg/g) ([1]; vehicle oleic acid, 55° C.): 61.9% | day 10, percentage based on the theoretical amount (250 μg/g) ([1]; vehicle oleic acid): 51.6% | day 0, percentage based on the theoretical amount (250 μg/g) ([1]; vehicle polysorbate 80, 55° C.): 92.1% | day 10, percentage based on the theoretical amount (250 μg/g) ([1]; vehicle polysorbate 80): 64.5% | day 0, percentage based on the theoretical amount (250 μg/g) ([1]; vehicle propyleneglycol fatty acid ester (Rikemal PO-100V), 250 μg/g solution, 55° C.): 93.9% | day 10, percentage based on the theoretical amount (250 μg/g) ([1]; vehicle propyleneglycol fatty acid ester (Rikemal PO-100V), 250 μg/g solution): 92.1% | day 0, percentage based on the theoretical amount (250 μg/g) ([1]; vehicle soy oil, 250 μg/g solution, 55° C.): 98.2% | day 10, percentage based on the theoretical amount (250 μg/g) ([1]; vehicle soy oil, 250 μg/g solution): 94.6% | day 0, percentage based on the theoretical amount (250 μg/g) ([1]; vehicle sugar alcohol solution derived from corn starch, 55° C.): 3.8% | day 10, percentage based on the theoretical amount (250 μg/g) ([1]; vehicle sugar alcohol solution derived from corn starch): 5.6% | amounts of compound 1 (% vs day 0), Initial ([2]; soft gelatin capsule, gelatin 100 / sugar alcohol solution 60, 120 μg/g in medium chain fatty acid triglyceride, 40° C.): 100 % vs day 0 | amounts of compound 1 (% vs day 0), Initial ([2]; soft gelatin capsule, gelatin 100 / sugar alcohol solution 60, 120 μg/g in medium chain fatty acid triglyceride, 55° C.): 100 % vs day 0 | amounts of compound 1 (% vs day 0), 1 mo ([2]; soft gelatin capsule, gelatin 100 / sugar alcohol solution 60, 120 μg/g in medium chain fatty acid triglyceride, stored at 40° C., 1 mo): 99.8 % vs day 0 | amounts of compound 1 (% vs day 0), 3 mo ([2]; soft gelatin capsule, gelatin 100 / sugar alcohol solution 60, 120 μg/g in medium chain fatty acid triglyceride, stored at 40° C., 3 mo): 98.0 % vs day 0 | amounts of compound 1 (% vs day 0), 6 mo ([2]; soft gelatin capsule, gelatin 100 / sugar alcohol solution 60, 120 μg/g in medium chain fatty acid triglyceride, stored at 40° C., 6 mo): 98.8 % vs day 0 | amounts of compound 1 (% vs day 0), 1 w ([2]; soft gelatin capsule, gelatin 100 / sugar alcohol solution 60, 120 μg/g in medium chain fatty acid triglyceride, stored at 55° C., 1 w): 100.2 % vs day 0 | amounts of compound 1 (% vs day 0), 2 w ([2]; soft gelatin capsule, gelatin 100 / sugar alcohol solution 60, 120 μg/g in medium chain fatty acid triglyceride, stored at 55° C., 2 w): 100.1 % vs day 0 | amounts of compound 1 (% vs day 0), 4 w ([2]; soft gelatin capsule, gelatin 100 / sugar alcohol solution 60, 120 μg/g in medium chain fatty acid triglyceride, stored at 55° C., 4 w): 99.5 % vs day 0 | effect of sugar alcohol solution/polyol on stability when used as plasticizer ([2]; sugar alcohol solution/polyol used as plasticizer of soft gelatin capsule shell): will not affect the stability
SMILES: CCCCC(F)(F)C(=O)CCC1CCC(=O)C1CCCCCCC(=O)O (stereo not shown) [Compound 1, 11-deoxy-13,14-dihydro-15-keto-16,16-difluoro PGE1]
